# Laboratory results as given in the supplement of paper PMC10307832.
# Columns and labels:
# Assay in all cases: relative viability (nuclei count vs DMSO), 5 days (fraction); higher = more cells survive
# BAY61-3606 + Bortezomib = compound: COC1=C(C=C(C=C1)C2=CC3=NC=CN3C(=N2)NC4=C(C=CC=N4)C(=O)N)OC [BAY61-3606] + CC(C)C[C@H](NC(=O)[C@H](Cc1ccccc1)NC(=O)c1cnccn1)B(O)O [Bortezomib] (partner 0.002 µM)
# In short: (§1)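 Medians of duplicate plates are given as relative viability. That measure is the nuclei count in treated wells divided by the count in vehicle wells. Counts were taken on 4× images of lung cancer cell lines in 1536-well plates, 5 days after pin-tool dosing the day after seeding with one drug alone or a fixed anchor-drug dose plus five library-drug doses (not always all listed) in √10 steps.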
# Doxorubicin + Foretinib = compound: COc1cccc2c1C(=O)c1c(O)c3c(c(O)c1C2=O)C[C@@](O)(C(=O)CO)C[C@@H]3O[C@H]1C[C@H](N)[C@H](O)[C@H](C)O1 [Doxorubicin] + COc1cc2c(Oc3ccc(NC(=O)C4(C(=O)Nc5ccc(F)cc5)CC4)cc3F)ccnc2cc1OCCCN1CCOCC1 [Foretinib] (partner 0.25 µM)
# In short: as §1
# Doxorubicin + Trametinib = compound: COc1cccc2c1C(=O)c1c(O)c3c(c(O)c1C2=O)C[C@@](O)(C(=O)CO)C[C@@H]3O[C@H]1C[C@H](N)[C@H](O)[C@H](C)O1 [Doxorubicin] + CC(=O)Nc1cccc(-n2c(=O)n(C3CC3)c(=O)c3c(Nc4ccc(I)cc4F)n(C)c(=O)c(C)c32)c1 [Trametinib] (partner 0.02 µM)
# In short: as §1
# BAY61-3606 + Dasatinib = compound: COC1=C(C=C(C=C1)C2=CC3=NC=CN3C(=N2)NC4=C(C=CC=N4)C(=O)N)OC [BAY61-3606] + Cc1nc(Nc2ncc(C(=O)Nc3c(C)cccc3Cl)s2)cc(N2CCN(CCO)CC2)n1 [Dasatinib] (partner 0.075 µM)
# In short: as §1
Cell Line,relative viability (BAY61-3606 + Bortezomib; first compound 0.02 µM),relative viability (BAY61-3606 + Bortezomib; first compound 0.06325 µM),relative viability (BAY61-3606 + Bortezomib; first compound 0.2 µM),relative viability (BAY61-3606 + Bortezomib; first compound 0.6325 µM),relative viability (BAY61-3606 + Bortezomib; first compound 2 µM),relative viability (Doxorubicin + Foretinib; first compound 0.001 µM),relative viability (Doxorubicin + Foretinib; first compound 0.003162 µM),relative viability (Doxorubicin + Foretinib; first compound 0.01 µM),relative viability (Doxorubicin + Foretinib; first compound 0.03162 µM),relative viability (Doxorubicin + Foretinib; first compound 0.1 µM),relative viability (Doxorubicin + Trametinib; first compound 0.001 µM),relative viability (Doxorubicin + Trametinib; first compound 0.003162 µM),relative viability (Doxorubicin + Trametinib; first compound 0.01 µM),relative viability (Doxorubicin + Trametinib; first compound 0.03162 µM),relative viability (Doxorubicin + Trametinib; first compound 0.1 µM),relative viability (BAY61-3606 + Dasatinib; first compound 0.02 µM),relative viability (BAY61-3606 + Dasatinib; first compound 0.06325 µM),relative viability (BAY61-3606 + Dasatinib; first compound 0.2 µM),relative viability (BAY61-3606 + Dasatinib; first compound 0.6325 µM),relative viability (BAY61-3606 + Dasatinib; first compound 2 µM)
NCI-H2405,0.992,0.973,0.961,0.964,0.942,1.02,1.1,1.02,1.09,1,0.595,0.548,0.601,0.446,0.584,0.203,0.205,0.201,0.181,0.185
201T,1.03,1.1,1.09,1.13,1.09,0.963,1.03,1.02,0.898,0.523,0.699,0.727,0.709,0.71,0.736,0.545,0.509,0.546,0.548,0.571
NCI-H650,0.917,0.766,0.618,0.681,0.72,0.93,0.965,1.08,0.834,0.954,0.98,0.876,1.04,0.881,0.917,0.52,0.378,0.363,0.428,0.361
PC-3 [JPC-3],0.833,0.841,0.826,0.834,0.793,1.05,1.06,1.05,0.97,1.06,0.614,0.628,0.687,0.632,0.741,,1.07,1,0.928,0.862
HCC-15,1.04,1.06,0.967,0.937,1.01,,0.922,0.94,0.49,0.404,0.381,0.395,0.393,0.379,0.407,0.696,0.59,0.592,0.551,0.483
NCI-H1650,0.24,0.201,0.183,0.356,0.201,0.967,1.38,0.859,0.291,0.181,0.56,0.532,0.433,0.218,0.144,0.304,0.261,0.3,0.296,0.245
LCLC-97TM1,0.639,0.73,0.527,0.533,0.702,0.977,0.861,0.895,0.882,0.891,0.193,0.219,0.15,0.199,0.209,0.722,0.98,1.03,0.804,0.864
NCI-H647,1.16,1.06,1.19,1.07,0.696,1.2,1.38,1.14,0.882,0.545,0.449,0.623,0.543,0.295,0.202,0.193,0.158,0.189,0.164,0.0812
EPLC-272H,1.01,0.931,0.915,0.958,0.951,0.899,0.67,0.753,0.517,0.78,0.278,0.288,0.28,0.289,0.295,0.386,0.385,0.315,0.41,0.275
